# In patent publication US7932284B2, “Indole sulfonamide modulators of progesterone receptors” (Eli Lilly and Company, priority 2006, dated 2011):
# Assays:
# [1] = biological target: T1, human GR (glucocorticoid receptor) (Homo sapiens, UniProt P04150); experiment: GR competition binding assay (HEK293 cell lysate); settings: 0.3 nM 3H-dexamethasone, 293-GR lysate
# T1 construct: expressed in transfected cells; host or cells: HEK293
# T1 sequence (P04150 1-777): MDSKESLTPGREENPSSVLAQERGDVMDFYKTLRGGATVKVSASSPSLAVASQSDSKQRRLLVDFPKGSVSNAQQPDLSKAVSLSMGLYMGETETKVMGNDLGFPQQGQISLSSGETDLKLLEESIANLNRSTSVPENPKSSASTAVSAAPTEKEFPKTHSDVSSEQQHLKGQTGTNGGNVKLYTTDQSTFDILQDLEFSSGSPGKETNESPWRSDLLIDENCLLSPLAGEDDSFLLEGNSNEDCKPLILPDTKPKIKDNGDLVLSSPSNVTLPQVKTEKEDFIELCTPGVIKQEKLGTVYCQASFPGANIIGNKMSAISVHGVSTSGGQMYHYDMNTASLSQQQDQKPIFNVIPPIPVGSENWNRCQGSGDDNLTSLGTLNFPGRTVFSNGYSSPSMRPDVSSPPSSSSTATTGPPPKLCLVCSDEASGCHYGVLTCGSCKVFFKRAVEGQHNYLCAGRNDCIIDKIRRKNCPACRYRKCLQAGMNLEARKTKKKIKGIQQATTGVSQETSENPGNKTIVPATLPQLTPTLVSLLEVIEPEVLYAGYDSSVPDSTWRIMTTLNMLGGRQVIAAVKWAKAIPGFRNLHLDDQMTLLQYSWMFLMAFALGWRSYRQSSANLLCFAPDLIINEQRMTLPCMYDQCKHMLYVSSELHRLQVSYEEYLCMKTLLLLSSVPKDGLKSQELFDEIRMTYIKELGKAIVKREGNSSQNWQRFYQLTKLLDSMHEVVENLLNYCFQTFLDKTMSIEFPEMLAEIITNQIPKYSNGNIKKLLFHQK
# Method: (§1) Cell lysates from HEK293 cells overexpressing human GR (glucocorticoid receptor), AR (androgen receptor), MR (mineralocorticoid receptor) or PR (progesterone receptor) are used for competition binding assays to determine Ki values for compounds of interest. Briefly, competition binding assays are run in a buffer containing 20 mM HEPES, pH 7.6, 0.2 mM EDTA, 75 mM NaCl, 1.5 mM MgCl2, 20% glycerol, 20 mM sodium molybdate, 0.2 mM DTT, 20 ug/ml aprotinin, and 20 ug/ml leupeptin, using either 0.3 nM ^3H-dexamethasone for GR binding, 0.36 nM ^3H-methyltrienolone for AR binding, 0.25 nM ^3H-aldosterone for MR binding, or 0.29 nM ^3H-methyltrienolone for PR binding, and either 20 ug 293-GR lysate, 22 ug 293-AR lysate, 20 ug 293-MR lysate or 40 ug 293-PR lysate per well. Competing compounds are added at various concentrations in half-log increments. Non-specific binding is determined in the presence of 500 nM dexamethasone for GR binding, 500 nM aldosterone for MR binding, or 500 nM methyltrienolone for AR and PR binding. The binding reaction (140 μl) is incubated overnight at 4° C., then 70 μl of cold charcoal-dextran buffer (containing per 50 ml of assay buffer, 0.75 g of charcoal and 0.25 g of dextran) is added to each reaction. Plates are mixed 8 minutes on an orbital shaker at 4° C. Plates are then centrifuged at 3,000 rpm at 4° C. for 10 minutes. An aliquot of 120 μl of the mixture is transferred to another 96-well plate and 175 μl of Wallac Optiphase “Hisafe 3” scintillation fluid is added to each well. Plates are sealed and shaken vigorously on an orbital shaker. After an incubation of 2 hrs, plates are read in a Wallac Microbeta counter. […] The Kd for ^3H-dexamethasone for GR binding, ^3H-methyltrienolone for AR binding, ^3H-aldosterone for MR binding, or ^3H-methyltrienolone for PR binding, is determined by saturation binding. The IC50 values for compounds are converted to Ki using Cheng-Prusoff equation and the Kd determined by saturation binding assay.
# [2] = biological target: T2, human AR (androgen receptor) (Homo sapiens, UniProt P10275); experiment: AR competition binding assay (HEK293 cell lysate); settings: 0.36 nM 3H-methyltrienolone, 293-AR lysate
# T2 construct: expressed in transfected cells; host or cells: HEK293
# T2 sequence (P10275 1-920): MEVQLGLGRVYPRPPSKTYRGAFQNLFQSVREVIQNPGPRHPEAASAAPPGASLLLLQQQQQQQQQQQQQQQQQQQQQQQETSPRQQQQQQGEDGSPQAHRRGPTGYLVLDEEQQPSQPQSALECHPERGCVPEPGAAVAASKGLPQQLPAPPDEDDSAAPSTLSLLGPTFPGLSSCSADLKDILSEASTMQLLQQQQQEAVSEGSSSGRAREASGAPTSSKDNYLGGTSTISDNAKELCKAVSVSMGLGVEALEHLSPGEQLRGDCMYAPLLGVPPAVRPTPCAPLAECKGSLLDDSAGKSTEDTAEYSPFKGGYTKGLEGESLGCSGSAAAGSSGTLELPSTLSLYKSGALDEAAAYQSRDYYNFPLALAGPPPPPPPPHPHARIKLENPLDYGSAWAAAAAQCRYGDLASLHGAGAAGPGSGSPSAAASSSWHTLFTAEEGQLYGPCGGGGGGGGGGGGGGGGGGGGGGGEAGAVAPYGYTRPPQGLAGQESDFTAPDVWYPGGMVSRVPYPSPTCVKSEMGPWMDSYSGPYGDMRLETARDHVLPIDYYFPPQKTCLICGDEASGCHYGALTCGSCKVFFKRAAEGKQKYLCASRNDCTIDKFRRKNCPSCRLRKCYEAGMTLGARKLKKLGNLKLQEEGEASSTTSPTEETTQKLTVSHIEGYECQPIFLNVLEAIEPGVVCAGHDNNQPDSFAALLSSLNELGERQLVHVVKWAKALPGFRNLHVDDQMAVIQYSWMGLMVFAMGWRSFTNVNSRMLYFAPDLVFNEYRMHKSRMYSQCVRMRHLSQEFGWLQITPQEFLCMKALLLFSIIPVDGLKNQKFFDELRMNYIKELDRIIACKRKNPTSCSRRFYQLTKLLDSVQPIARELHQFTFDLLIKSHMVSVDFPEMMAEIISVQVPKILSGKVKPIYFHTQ
# Method: as §1
Compound,Ki [1] [nM],Ki [2] [nM]
"Cn1cc(-c2ccc(C#N)cc2)c2ccc(NS(C)(=O)=O)cc21 [Example 25, N-[3-(4-Cyano-phenyl)-1-methyl-1H-indol-6-yl]-methanesulfonamide]",> 1000,> 1000
"CC(C)n1cc(-c2ccc(C#N)cc2)c2ccc(NS(C)(=O)=O)cc21 [Example 28, N-[3-(4-Cyano-phenyl)-1-isopropyl-1H-indol-6-yl]-methanesulfonamide]",> 1000,> 1000
"CC(C)Cn1cc(-c2ccc(C#N)cc2)c2ccc(NS(C)(=O)=O)cc21 [Example 29, N-[3-(4-Cyano-phenyl)-1-isobutyl-1H-indol-6-yl]-methanesulfonamide]",100 to 500,100 to 500
"Cn1cc(-c2ccc([N+](=O)[O-])cc2)c2ccc(NS(C)(=O)=O)cc21 [Example 30, N-[1-Methyl-3-(4-nitro-phenyl)-1H-indol-6-yl]-methanesulfonamide]",> 1000,> 1000
"Cn1cc(-c2ccc(C#N)cc2)c2ccc(NS(=O)(=O)c3cccs3)cc21 [Example 32, Thiophene-2-sulfonic acid [3-(4-cyano-phenyl)-1-methyl-1H-indol-6-yl]-amide]",> 1000,> 1000
"CC(C)n1cc(-c2ccc(C#N)s2)c2ccc(NS(C)(=O)=O)cc21 [Example 43, N-[3-(5-Cyano-thiophen-2-yl)-1-isopropyl-1H-indol-6-yl]-methanesulfonamide]",> 1000,100 to 500
"CS(=O)(=O)Nc1ccc2c(-c3ccc(C#N)cc3)cn(C3CCCC3)c2c1 [Example 63, N-[3-(4-Cyano-phenyl)-1-cyclopentyl-1H-indol-6-yl]-methanesulfonamide]",> 1000,> 1000
"CS(=O)(=O)Nc1ccc2c(-c3ccc(C#N)cc3)cn(Cc3ccccc3)c2c1 [Example 72, N-[1-Benzyl-3-(4-cyano-phenyl)-1H-indol-6-yl]-methanesulfonamide]",50 to 100,> 1000
"CCOC(=O)c1ccc(-c2cn(C(C)C)c3cc(NS(C)(=O)=O)ccc23)cc1 [Example 74, 4-(1-Isopropyl-6-methanesulfonylamino-1H-indol-3-yl)-benzoic acid ethyl ester]",> 1000,> 1000
"CS(=O)(=O)Nc1ccc2c(-c3ccc(C#N)cc3)cn(CC3CCCCC3)c2c1 [Example 77, N-[3-(4-Cyano-phenyl)-1-cyclohexylmethyl-1H-indol-6-yl]-methanesulfonamide]",100 to 500,100 to 500
"CC(C)n1cc(-c2ccc(C#N)n2C)c2ccc(NS(C)(=O)=O)cc21 [Example 78, N-[3-(5-Cyano-1-methyl-1H-pyrrol-2-yl)-1-isopropyl-1H-indol-6-yl]-methanesulfonamide]",100 to 500,50 to 100
"CC(C)n1cc(-c2ccccc2)c2ccc(NS(C)(=O)=O)cc21 [Example 85, N-(1-Isopropyl-3-phenyl-1H-indol-6-yl)-methanesulfonamide]",> 1000,100 to 500
"CC(C)n1cc(-c2ccc(C(N)=O)cc2)c2ccc(NS(C)(=O)=O)cc21 [Example 87, 4-(1-Isopropyl-6-methanesulfonylamino-1H-indol-3-yl)-benzamide]",> 1000,> 1000
"CC(C)n1cc(-c2ccc(C=NO)cc2)c2ccc(NS(C)(=O)=O)cc21 [Example 94, N-{3-[4-(Hydroxyimino-methyl)-phenyl]-1-isopropyl-1H-indol-6-yl}-methanesulfonamide]",> 1000,100 to 500
"CC(C)n1cc(-c2ccc3oc(=O)ccc3c2)c2ccc(NS(C)(=O)=O)cc21 [Example 96, N-[1-Isopropyl-3-(2-oxo-2H-chromen-6-yl)-1H-indol-6-yl]-methanesulfonamide]",> 1000,> 1000
"CC(C)n1cc(-c2ccc3c(c2)COC3=O)c2ccc(NS(C)(=O)=O)cc21 [Example 97, N-[1-Isopropyl-3-(1-oxo-1,3-dihydro-isobenzofuran-5-yl)-1H-indol-6-yl]-methanesulfonamide]",> 1000,> 1000

# Second part, the compound after the results:
Ki [1] [nM],Ki [2] [nM],Compound
> 1000,500 to 1000,"CC(C)n1cc(-c2ccc(Cl)cc2)c2ccc(NS(C)(=O)=O)cc21 [Example 36, N-[3-(4-Chloro-phenyl)-1-isopropyl-1H-indol-6-yl]-methanesulfonamide]"
> 1000,500 to 1000,"CC(C)n1cc(-c2ccc(C#N)c(F)c2)c2ccc(NS(C)(=O)=O)cc21 [Example 38, N-[3-(4-Cyano-3-fluoro-phenyl)-1-isopropyl-1H-indol-6-yl]-methanesulfonamide]"
> 1000,> 1000,"CSc1ccc(-c2cn(C(C)C)c3cc(NS(C)(=O)=O)ccc23)cc1 [Example 83, N-[1-Isopropyl-3-(4-methylsulfanyl-phenyl)-1H-indol-6-yl]-methanesulfonamide]"
> 1000,500 to 1000,"Cc1ccc(-c2cn(C(C)C)c3cc(NS(C)(=O)=O)ccc23)cc1F [Example 84, N-[3-(3-Fluoro-4-methyl-phenyl)-1-isopropyl-1H-indol-6-yl]-methanesulfonamide]"
> 1000,> 1000,"COc1ccc(-c2cn(C(C)C)c3cc(NS(C)(=O)=O)ccc23)cc1C [Example 86, N-[1-Isopropyl-3-(4-methoxy-3-methyl-phenyl)-1H-indol-6-yl]-methanesulfonamide]"
> 1000,> 1000,"COc1ccc(-c2cn(C(C)C)c3cc(NS(C)(=O)=O)ccc23)cn1 [Example 88, N-[1-Isopropyl-3-(6-methoxy-pyridin-3-yl)-1H-indol-6-yl]-methanesulfonamide]"
> 1000,100 to 500,"CC(C)n1cc(-c2ccc(O)cc2)c2ccc(NS(C)(=O)=O)cc21 [Example 93, N-[3-(4-Hydroxy-phenyl)-1-isopropyl-1H-indol-6-yl]-methanesulfonamide]"
> 1000,500 to 1000,"CC(C)n1cc(-c2ccc3sccc3c2)c2ccc(NS(C)(=O)=O)cc21 [Example 95, N-(3-Benzo[b]thiophen-5-yl-1-isopropyl-1H-indol-6-yl)-methanesulfonamide]"
